# Data: patent US10370366B2 (Flatley Discovery Lab, LLC, priority 2013, dated 2019)
# Target: T1, human F508del CFTR (Homo sapiens, UniProt P13569, DEL508-508)
# T1 construct: expressed in transfected cells; host or cells: Fisher Rat Thyroid (FRT) cells
# Experiment: CFTR-YFP High Throughput Assay
# Assay type: cell-based
# Settings: FRT cells expressing human F508del CFTR and YFP; for Emax: EMax normalized to the positive control, read-out: % Efficacy
# Method in brief: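 Corrector mode: 24-26 h compound exposure (2 nM-40 μM, 37° C) of FRT cells carrying human F508del CFTR and YFP-H148Q/I152L, followed by washing and 60-120 min RT stimulation with 20 μM forskolin and 30 μM P3. CFTR activity is the least-squares-fitted rate of YFP quenching (Ex 500/Em 540 nm) after iodide addition.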
# T1 sequence (P13569 with tags, fused parts or gaps DEL508-508): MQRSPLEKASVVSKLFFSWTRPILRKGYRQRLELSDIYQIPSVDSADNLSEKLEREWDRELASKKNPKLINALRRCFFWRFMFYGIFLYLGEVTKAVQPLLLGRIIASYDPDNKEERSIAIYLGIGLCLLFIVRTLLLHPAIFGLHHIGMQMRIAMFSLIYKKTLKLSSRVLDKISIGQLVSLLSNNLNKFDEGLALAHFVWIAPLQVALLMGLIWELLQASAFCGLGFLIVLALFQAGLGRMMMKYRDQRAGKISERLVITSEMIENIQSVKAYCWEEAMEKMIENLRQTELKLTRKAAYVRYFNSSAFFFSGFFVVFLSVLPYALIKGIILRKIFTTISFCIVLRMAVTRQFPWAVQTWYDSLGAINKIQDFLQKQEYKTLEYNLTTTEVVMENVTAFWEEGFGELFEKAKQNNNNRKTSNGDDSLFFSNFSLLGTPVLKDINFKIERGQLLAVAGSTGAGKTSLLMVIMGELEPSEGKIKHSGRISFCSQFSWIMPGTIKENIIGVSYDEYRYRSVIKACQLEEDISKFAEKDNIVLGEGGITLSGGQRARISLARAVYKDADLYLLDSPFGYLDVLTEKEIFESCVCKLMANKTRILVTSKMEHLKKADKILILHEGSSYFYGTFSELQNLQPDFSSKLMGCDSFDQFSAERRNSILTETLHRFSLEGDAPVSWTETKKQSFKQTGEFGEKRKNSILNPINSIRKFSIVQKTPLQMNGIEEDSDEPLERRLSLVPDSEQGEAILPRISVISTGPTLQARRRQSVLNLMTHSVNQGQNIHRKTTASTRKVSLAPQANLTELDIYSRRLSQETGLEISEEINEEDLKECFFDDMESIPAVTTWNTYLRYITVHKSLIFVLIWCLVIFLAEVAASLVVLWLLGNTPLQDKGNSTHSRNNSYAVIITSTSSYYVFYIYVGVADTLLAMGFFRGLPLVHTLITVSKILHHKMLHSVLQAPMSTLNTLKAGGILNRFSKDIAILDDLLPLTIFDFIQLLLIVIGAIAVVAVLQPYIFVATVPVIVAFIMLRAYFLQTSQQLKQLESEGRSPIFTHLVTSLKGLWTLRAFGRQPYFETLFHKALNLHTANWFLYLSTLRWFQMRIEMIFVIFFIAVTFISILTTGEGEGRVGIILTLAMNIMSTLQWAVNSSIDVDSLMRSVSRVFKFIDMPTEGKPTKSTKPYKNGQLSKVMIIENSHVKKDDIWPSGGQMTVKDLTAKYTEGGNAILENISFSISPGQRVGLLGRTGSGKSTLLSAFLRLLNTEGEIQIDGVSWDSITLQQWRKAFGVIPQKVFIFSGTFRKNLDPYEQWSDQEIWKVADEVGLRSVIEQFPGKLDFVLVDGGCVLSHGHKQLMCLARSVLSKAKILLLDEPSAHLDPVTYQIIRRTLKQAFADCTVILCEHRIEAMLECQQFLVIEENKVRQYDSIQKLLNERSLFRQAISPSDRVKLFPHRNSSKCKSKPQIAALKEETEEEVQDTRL
smiles,measurement,value
"COc1ccc2c(-c3cccc(C#N)c3)nn(CC(=O)N(c3ccc4c(c3)OC(F)(F)O4)C(C)C)c(=O)c2c1 [Example 77, 2-(4-(3-cyanophenyl)-7-methoxy-1-oxophthalazin-2(1H)-yl)-N-(2,2-difluorobenzo[d][1,3]dioxol-5-yl)-N-isopropylacetamide]",Emax,> 80%
same,EC50,10 to 20 µM
"COc1ccc2c(-c3ccc(S(N)(=O)=O)cc3)nn(CC(=O)N(c3ccc4c(c3)OC(F)(F)O4)C3CC3)c(=O)c2c1 [Example 78, N-cyclopropyl-N-(2,2-difluorobenzo[d][1,3]dioxol-5-yl)-2-(7-methoxy-1-oxo-4-(4-sulfamoylphenyl)phthalazin-2(1H)-yl)acetamide]",Emax,30 to 80%
"COc1ccc2c(-c3cccc(C#N)c3)nn(CC(=O)N(c3ccc4c(c3)OC(F)(F)O4)C3CC3)c(=O)c2c1 [Example 79, 2-(4-(3-cyanophenyl)-7-methoxy-1-oxophthalazin-2(1H)-yl)-N-cyclopropyl-N-(2,2-difluorobenzo[d][1,3]dioxol-5-yl)acetamide]",Emax,> 80%
"CCN(C(=O)Cn1nc(-c2ccc(S(N)(=O)=O)cc2)c2ccc(OC)cc2c1=O)c1ccc2nc(C)oc2c1 [Example 80, N-ethyl-2-(7-methoxy-1-oxo-4-(4-sulfamoylphenyl)phthalazin-2(1H)-yl)-N-(2-methylbenzo[d]oxazol-6-yl)acetamide]",Emax,30 to 80%
same,EC50,10 to 20 µM
"CCN(C(=O)Cn1nc(-c2cccc(C#N)c2)c2ccc(OC)cc2c1=O)c1ccc2nc(C)oc2c1 [Example 81, 2-(4-(3-cyanophenyl)-7-methoxy-1-oxophthalazin-2(1H)-yl)-N-ethyl-N-(2-methylbenzo[d]oxazol-6-yl)acetamide]",Emax,> 80%
same,EC50,< 10 µM
"CCN(C(=O)Cn1nc(-c2ccc(C(N)=O)cc2)c2ccc(OC)cc2c1=O)c1ccc2c(c1)OC(F)(F)O2 [Example 82, 4-(3-(2-((2,2-difluorobenzo[d][1, 3]dioxol-5-yl)(ethyl)amino)-2-oxoethyl)-6-methoxy-4-oxo-3,4-dihydrophthalazin-1-yl)benzamide]",Emax,30 to 80%
"COc1ccc2c(-c3ccc(C(N)=O)cc3)nn(CC(=O)N(C)c3ccc4c(c3)OC(F)(F)O4)c(=O)c2c1 [Example 83, 4-(3-(2-((2,2-difluorobenzo[d][1, 3]dioxol-5-yl)(methyl)amino)-2-oxoethyl)-6-methoxy-4-oxo-3,4-dihydrophthalazin-1-yl)benzamide]",Emax,30 to 80%
"CCN(C(=O)Cn1nc(-c2ccc(C(N)=O)cc2)c2ccc(OC)cc2c1=O)c1ccc2nc(C)oc2c1 [Example 84, 4-(3-(2-(ethyl(2-methylbenzo[d]oxazol-6-yl)amino)-2-oxoethyl)-6-methoxy-4-oxo-3,4-dihydrophthalazin-1-yl)benzamide]",Emax,30 to 80%
"[2H]C([2H])([2H])N(C(=O)Cn1nc(-c2cccc(C#N)c2)c2ccc(OC)cc2c1=O)c1ccc2nc(C)oc2c1 [Example 86, 2-(4-(3-cyanophenyl)-7-methoxy-1-oxophthalazin-2(1H)-yl)-N-(methyl-d3)-N-(2-methylbenzo[d]oxazol-6-yl)acetamide]",Emax,> 80%
same,EC50,< 10 µM
"COc1ccc2c(-c3cccc(C#N)c3)nn(CC(=O)N(C)c3ccc4nc(C)oc4c3)c(=O)c2c1 [Example 87, 2-(4-(3-cyanophenyl)-7-methoxy-1-oxophthalazin-2(1H)-yl)-N-methyl-N-(2-methylbenzo[d]oxazol-6-yl)acetamide]",Emax,> 80%
same,EC50,< 10 µM
"COc1cc2c(=O)n(CC(=O)N(C)c3ccc4nc(C)oc4c3)nc(-c3cccc(F)c3)c2cc1Cl [Example 93, 2-(6-chloro-4-(3-fluorophenyl)-7-methoxy-1-oxophthalazin-2(1H)-yl)-N-methyl-N-(2-methylbenzo[d]oxazol-6-yl)acetamide]",Emax,> 80%
"COc1cc2c(=O)n(CC(=O)N(C)c3ccc4c(c3)OC(F)(F)O4)nc(-c3cccc(C#N)c3)c2cc1Cl [Example 96, 2-(6-chloro-4-(3-cyanophenyl)-7-methoxy-1-oxophthalazin-2(1H)-yl)-N-(2,2-difluorobenzo[d][1,3]dioxol-5-yl)-N-methylacetamide]",Emax,> 80%
same,EC50,< 10 µM
"Cc1nc2ccc(N(C)C(=O)Cn3nc(-c4cccc(Cl)c4)c4ccc(O)cc4c3=O)cc2o1 [Example 98, 2-(4-(3-chlorophenyl)-7-hydroxy-1-oxophthalazin-2(1H)-yl)-N-methyl-N-(2-methylbenzo[d]oxazol-6-yl)acetamide]",EC50,< 10 µM
"Cc1nc2ccc(N(C(=O)Cn3nc(-c4cccc(F)c4)c4ccc(O)cc4c3=O)C3CC3)cc2o1 [Example 99, N-cyclopropyl-2-(4-(3-fluorophenyl)-7-hydroxy-1-oxophthalazin-2(1H)-yl)-N-(2-methylbenzo[d]oxazol-6-yl)acetamide]",Emax,> 80%
"Cc1nc2ccc(N(C(=O)Cn3nc(-c4cccc(Cl)c4)c4ccc(O)cc4c3=O)C3CC3)cc2o1 [Example 100, 2-(4-(3-chlorophenyl)-7-hydroxy-1-oxophthalazin-2(1H)-yl)-N-cyclopropyl-N-(2-methylbenzo[d]oxazol-6-yl)acetamide]",EC50,< 10 µM
"CN(C(=O)Cn1nc(-c2cccc(C#N)c2)c2ccc(O)cc2c1=O)c1ccc2c(c1)OC(F)(F)O2 [Example 102, 2-(4-(3-cyanophenyl)-7-hydroxy-1-oxophthalazin-2(1H)-yl)-N-(2,2-difluorobenzo[d][1,3]dioxol-5-yl)-N-methylacetamide]",Emax,> 80%
same,EC50,< 10 µM
"CCN(C(=O)Cn1nc(-c2cccc(C#N)c2)c2ccc(O)cc2c1=O)c1ccc2c(c1)OC(F)(F)O2 [Example 103, 2-(4-(3-cyanophenyl)-7-hydroxy-1-oxophthalazin-2(1H)-yl)-N-(2,2-difluorobenzo[d][1,3]dioxol-5-yl)-N-ethylacetamide]",Emax,> 80%
same,EC50,< 10 µM
"CCOc1ccc2c(-c3cccc(C#N)c3)nn(CC(=O)N(C)c3ccc4nc(C)oc4c3)c(=O)c2c1 [Example 109, 2-(4-(3-cyanophenyl)-7-ethoxy-1-oxophthalazin-2(1H)-yl)-N-methyl-N-(2-methylbenzo[d]oxazol-6-yl)acetamide]",Emax,> 80%
same,EC50,< 10 µM
"Cc1nc2ccc(N(C)C(=O)Cn3nc(-c4cccc(C#N)c4)c4ccc(OC5CCCCC5)cc4c3=O)cc2o1 [Example 115, 2-(4-(3-cyanophenyl)-7-(cyclohexyloxy)-1-oxophthalazin-2(1H)-yl)-N-methyl-N-(2-methylbenzo[d]oxazol-6-yl)acetamide]",Emax,> 80%
same,EC50,< 10 µM
"Cc1nc2ccc(N(C)C(=O)Cn3nc(-c4cccc(Cl)c4)c4ccc(OCc5ccccc5)cc4c3=O)cc2o1 [Example 116, 2-(7-(benzyloxy)-4-(3-chlorophenyl)-1-oxophthalazin-2(1H)-yl)-N-methyl-N-(2-methylbenzo[d]oxazol-6-yl)acetamide]",Emax,> 80%
same,EC50,< 10 µM
"Cc1nc2ccc(N(C)C(=O)Cn3nc(-c4cccc(C#N)c4)c4ccc(OC5CCOCC5)cc4c3=O)cc2o1 [Example 120, 2-(4-(3-cyanophenyl)-1-oxo-7-((tetrahydro-2H-pyran-4-yl)oxy)phthalazin-2(1H)-yl)-N-methyl-N-(2-methylbenzo[d]oxazol-6-yl)acetamide]",Emax,> 80%
same,EC50,< 10 µM
"CCOc1cc2c(=O)n(CC(=O)N(C)c3ccc4nc(C)oc4c3)nc(-c3cccc(F)c3)c2cc1Cl [Example 121, 2-(6-chloro-7-ethoxy-4-(3-fluorophenyl)-1-oxophthalazin-2(1H)-yl)-N-methyl-N-(2-methylbenzo[d]oxazol-6-yl)acetamide]",Emax,> 80%
"CCOc1cc2c(=O)n(CC(=O)N(C)c3ccc4c(c3)OC(F)(F)O4)nc(-c3cccc(C#N)c3)c2cc1Cl [Example 122, 2-(6-chloro-4-(3-cyanophenyl)-7-ethoxy-1-oxophthalazin-2(1H)-yl)-N-(2,2-difluorobenzo[d][1,3]dioxol-5-yl)-N-methylacetamide]",Emax,> 80%
same,EC50,< 10 µM
"CCN(C(=O)Cn1nc(C(=O)Nc2ccccc2C#N)c2ccccc2c1=O)c1ccc2c(c1)OC(F)(F)O2 [Example 124, N-(2-cyanophenyl)-3-(2-((2,2-difluorobenzo[d][1, 3]dioxol-5-yl)(ethyl)amino)-2-oxoethyl)-4-oxo-3,4-dihydrophthalazine-1-carboxamide]",Emax,30 to 80%
CCN(C(=O)Cn1nc(C(=O)Nc2cc(Cl)ccc2C(=O)O)c2ccccc2c1=O)c1ccc2c(c1)OC(F)(F)O2 [Example 125],Emax,30 to 80%
"CCN(C(=O)Cn1nc(C(=O)Nc2ccccn2)c2ccccc2c1=O)c1ccc2c(c1)OC(F)(F)O2 [Example 126, 3-(2-((2,2-difluorobenzo[d][1,3]dioxol-5-yl)(ethyl)amino)-2-oxoethyl)-4-oxo-N-(pyridin-2-yl)-3,4-dihydrophthalazine-1-carboxamide]",Emax,30 to 80%
same,EC50,< 10 µM
"CCN(C(=O)Cn1nc(C(=O)N(C)c2ccccn2)c2ccccc2c1=O)c1ccc2c(c1)OC(F)(F)O2 [Example 127, 3-(2-((2,2-difluorobenzo[d][1,3]dioxol-5-yl)(ethyl)amino)-2-oxoethyl)-N-methyl-4-oxo-N-(pyridin-2-yl)-3,4-dihydrophthalazine-1-carboxamide]",Emax,30 to 80%
same,EC50,< 10 µM
"CCc1ccc(N(CC)C(=O)Cn2nc(C(=O)Nc3cc(Cl)ccc3C#N)c3ccccc3c2=O)cc1 [Example 128, N-(5-chloro-2-cyanophenyl)-3-(2-(ethyl(4-ethylphenyl)amino)-2-oxoethyl)-4-oxo-3,4-dihydrophthalazine-1-carboxamide]",Emax,30 to 80%
same,EC50,10 to 20 µM
"CCN(C(=O)Cn1nc(C(=O)N(CC)c2ccccc2C#N)c2ccccc2c1=O)c1ccc2c(c1)OC(F)(F)O2 [Example 129, N-(2-cyanophenyl)-3-(2-((2,2-difluorobenzo[d][1,3]dioxol-5-yl)(ethyl)amino)-2-oxoethyl)-N-ethyl-4-oxo-3,4-dihydrophthalazine-1-carboxamide]",Emax,30 to 80%
same,EC50,10 to 20 µM
